Where “and” joins values, the source holds several entries; their conditions need not be identical. Equal entries are not always repeated.
System: folate-receptor-positive human KB cell tumor xenografts
Assay: Biodistribution of 111In radiotracer in KB tumor-bearing athymic mice after intravenous administration
Type: in vivo
Settings: for Percentage of Injected 111In Dose Per Organ (Tissue): Muscle: muscle assumed 42% of body mass
Procedure: Our primary animal model for evaluation of the biodistribution and pharmacokinetics of folate-receptor-targeted radiopharmaceuticals has been athymic mice bearing subcutaneously implanted folate-receptor-positive human KB cell tumors. […] After 3 weeks on folate-free diet, mouse serum folate levels drop to 25±7 nM from the initial 720±260 nM serum folate level when the animals are fed normal rodent chow. This dietary intervention is believed to be a reasonable manipulation of the animal model, since the mice would have serum folate levels only slightly higher than the folate concentration of normal human serum. Thus, in these mouse biodistribution studies the radiotracer is competing for tumor folate receptors with physiologically relevant concentrations of endogenous unlabeled serum folate.
The substantial retention of ^111In in the kidneys is fully consistent with the binding of ^111In-CYK4-013 to tissue folate receptors, since the renal proximal tubule is a known normal tissue site of folate receptor expression. […] The behavior of the ^111In-CYK4-013 radiopharmaceutical in this animal model (Table 2) is very similar to that observed for ^111In-DTPA-Folate (Table 3).
Results. Similar to ^111In-DTPA-Folate, ^111In-CYK4-013 selectively localized in the folate-receptor-positive tumor xenografts, and afforded prolonged tumor retention of ^111In (5.4±0.8; 5.5±1.1; and 3.6±0.6% ID/g at 1 hour, 4 hours, and 24 hours, respectively) (Table 2). […] Blockable binding was also observed in the kidneys, where the folate receptor occurs in the proximal tubules.

[1] = 1 Hour after intravenous administration
[2] = 4 Hours after intravenous administration

## Nc1nc(O)c2nc(CNc3ccc(C(=O)NCCOCCOCCNC(=O)CN(CCN(CCN(CC(=O)O)CC(=O)O)CC(=O)O)CC(=O)O)cc3)cnc2n1.[111In+3] [^111In-CYK4-013]
[1]
  Percentage of Injected 111In Dose Per Gram (Tissue Wet Mass): Blood: 0.18 ± 0.01 % ID/g
  Percentage of Injected 111In Dose Per Gram (Tissue Wet Mass): Heart: 3.5 ± 0.4 % ID/g
  Percentage of Injected 111In Dose Per Gram (Tissue Wet Mass): Kidney (one): 61 ± 5 % ID/g
  Percentage of Injected 111In Dose Per Gram (Tissue Wet Mass): Liver & Gall Bladder: 4.3 ± 0.7 % ID/g
  Percentage of Injected 111In Dose Per Gram (Tissue Wet Mass): Lungs: 1.5 ± 0.2 % ID/g
  Percentage of Injected 111In Dose Per Gram (Tissue Wet Mass): Muscle: 3.5 ± 0.5 % ID/g
  Percentage of Injected 111In Dose Per Gram (Tissue Wet Mass): Spleen: 0.31 ± 0.09 % ID/g
  Percentage of Injected 111In Dose Per Gram (Tissue Wet Mass): Stomach, Intestines & Contents: 1.7 ± 0.2 % ID/g
  Percentage of Injected 111In Dose Per Gram (Tissue Wet Mass): Tumor: 5.4±0.8 % ID/g
  Percentage of Injected 111In Dose Per Organ (Tissue): Blood: 0.29 ± 0.003 Percentage of Injected 111In D
  Percentage of Injected 111In Dose Per Organ (Tissue): Heart: 0.51 ± 0.09 Percentage of Injected 111In D
  Percentage of Injected 111In Dose Per Organ (Tissue): Kidney (one): 15.3 ± 1.2 Percentage of Injected 111In D
  Percentage of Injected 111In Dose Per Organ (Tissue): Liver & Gall Bladder: 6.8 ± 1.3 Percentage of Injected 111In D
  Percentage of Injected 111In Dose Per Organ (Tissue): Lungs: 0.69 ± 0.06 Percentage of Injected 111In D
  Percentage of Injected 111In Dose Per Organ (Tissue): Spleen: 0.063 ± 0.016 Percentage of Injected 111In D
  Percentage of Injected 111In Dose Per Organ (Tissue): Stomach, Intestines & Contents: 5.8 ± 0.5 Percentage of Injected 111In D
  Percentage of Injected 111In Dose Per Organ (Tissue): Tumor: 0.78 ± 0.47 Percentage of Injected 111In D
  Tumor/blood ratio: 30 ± 5
  Tumor/kidney ratio: 0.088 ± 0.013
  Tumor/liver ratio: 1.3 ± 0.4
  Tumor/muscle ratio: 1.6 ± 0.4
  Percentage of Injected 111In Dose Per Organ (Tissue): Muscle: 43.6 ± 4.1 Percentage of Injected 111In D
[2]
  Percentage of Injected 111In Dose Per Gram (Tissue Wet Mass): Blood: 0.050 ± 0.009 % ID/g
  Percentage of Injected 111In Dose Per Gram (Tissue Wet Mass): Heart: 2.9 ± 0.9 % ID/g
  Percentage of Injected 111In Dose Per Gram (Tissue Wet Mass): Kidney (one): 81 ± 7 % ID/g
  Percentage of Injected 111In Dose Per Gram (Tissue Wet Mass): Liver & Gall Bladder: 1.9 ± 0.6 % ID/g
  Percentage of Injected 111In Dose Per Gram (Tissue Wet Mass): Lungs: 1.4 ± 0.3 % ID/g
  Percentage of Injected 111In Dose Per Gram (Tissue Wet Mass): Muscle: 2.8 ± 0.8 % ID/g
  Percentage of Injected 111In Dose Per Gram (Tissue Wet Mass): Spleen: 0.29 ± 0.07 % ID/g
  Percentage of Injected 111In Dose Per Gram (Tissue Wet Mass): Stomach, Intestines & Contents: 1.5 ± 0.9 % ID/g
  Percentage of Injected 111In Dose Per Gram (Tissue Wet Mass): Tumor: 5.5±1.1 % ID/g and 5.6 ± 1.1 % ID/g
  Percentage of Injected 111In Dose Per Organ (Tissue): Blood: 0.078 ± 0.010 Percentage of Injected 111In D
  Percentage of Injected 111In Dose Per Organ (Tissue): Heart: 0.41 ± 0.08 Percentage of Injected 111In D
  Percentage of Injected 111In Dose Per Organ (Tissue): Kidney (one): 20.2 ± 1.6 Percentage of Injected 111In D
  Percentage of Injected 111In Dose Per Organ (Tissue): Liver & Gall Bladder: 3.0 ± 1.0 Percentage of Injected 111In D
  Percentage of Injected 111In Dose Per Organ (Tissue): Lungs: 0.60 ± 0.01 Percentage of Injected 111In D
  Percentage of Injected 111In Dose Per Organ (Tissue): Spleen: 0.049 ± 0.012 Percentage of Injected 111In D
  Percentage of Injected 111In Dose Per Organ (Tissue): Stomach, Intestines & Contents: 5.4 ± 0.8 Percentage of Injected 111In D
  Percentage of Injected 111In Dose Per Organ (Tissue): Tumor: 0.46 ± 0.26 Percentage of Injected 111In D
  Tumor/blood ratio: 111 ± 11
  Tumor/kidney ratio: 0.069 ± 0.013
  Tumor/liver ratio: 3.0 ± 0.5
  Tumor/muscle ratio: 2.1 ± 0.2
  Percentage of Injected 111In Dose Per Organ (Tissue): Muscle: 33 ± 9 Percentage of Injected 111In D
4 Hours, Blocked: co-injection of folic acid dihydrate 4.1 ± 0.4 mg/kg
  Percentage of Injected 111In Dose Per Gram (Tissue Wet Mass): Blood: 0.016 ± 0.010 % ID/g

Reference: patent US8470822B2, “Folate mimetics and folate-receptor binding conjugates thereof” (Purdue Research Foundation, priority 2001, dated 2013)
